Laboratory results taken from US20170246130A1, “4-HYDROXYBENZOHYDARZIDE-A NEW CLASS OF ANGIOGENIC ENZYME THYMIDINE PHOSPHORYLASE INHIBITORS” (priority 2016, published 2017).
“Also recorded” adds a separate entry of the source. Where two headings read alike, the source gives them in different places.

What was measured:
[1] = biological target: T1, thymidine phosphorylase (E. coli) (Escherichia coli, UniProt P07650); assay: In-vitro thymidine phosphorylase inhibition assay (spectrophotometric); assay type: biochemical; details: recombinant E. coli TP, thymidine substrate, pH 7.0, 30° C., 290 nm; for IC50: read-out: IC50 (μM ± S.E.M.), thymidine phosphorylase inhibition
T1 construct: purchased Sigma Aldrich, USA; host or cells: Escherichia coli
T1 sequence (P07650 whole entry): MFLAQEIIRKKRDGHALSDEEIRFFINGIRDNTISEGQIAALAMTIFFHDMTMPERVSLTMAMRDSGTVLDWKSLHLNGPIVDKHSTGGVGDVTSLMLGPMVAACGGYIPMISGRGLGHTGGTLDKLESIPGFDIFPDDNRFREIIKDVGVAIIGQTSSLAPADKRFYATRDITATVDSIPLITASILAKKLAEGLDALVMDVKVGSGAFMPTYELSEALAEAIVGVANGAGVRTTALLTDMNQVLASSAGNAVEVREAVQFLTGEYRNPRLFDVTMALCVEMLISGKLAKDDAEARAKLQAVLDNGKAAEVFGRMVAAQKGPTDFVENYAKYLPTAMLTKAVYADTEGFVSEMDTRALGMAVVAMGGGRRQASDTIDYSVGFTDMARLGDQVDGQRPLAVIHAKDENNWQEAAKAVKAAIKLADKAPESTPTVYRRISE
Experimental: In vitro studies on thymidine phosphorylase were carried out in 96-well microtiter plate using Spectra Max-340 and Spectra Max-384 spectrophotometers (Molecular Devices, CA, USA). Deionized water used for buffer preparation was collected by Simplicity Water Purification System (Milipore).
Since human TP is not commercially available, we used commercially available recombinant E. coli TP (expressed in Escherichia coli) enzyme. Primary sequence of TP is mostly conserved throughout the evolution as mammalian TP share 39% sequence similarity with TP of E. coli. The mammalian enzyme also shared 65-70% similarity with the active site residues of E. coli TP enzyme (Bronckaers et al., 2009). Assay for thymidine phosphorylase inhibition was performed spectrophotometrically, following method of Bera et al. with some modifications (Bera et al., 2013).
The reaction catalyzed by thymidine phosphorylase involves reversible phosphorolysis of thymidine (FIG. 1), to thymine and 2-deoxyribose-1-phosphate (Bronckaers et al., 2009).
Reaction mixture contained 150 μL of potassium phosphate buffer (pH 7.0, 50 mM), 20 µL of enzyme (0.058 U/well) and 10 μL of test compound (0.5 mM in dimethylsulfoxide). The reaction mixture was incubated for 10 min at 30° C.
The enzyme inhibitory activities were calculated using the following formula:
Percent Inhibition=100−(O.D. of test/O.D. of control)×100
Where test is the enzyme activity with sample, and control is the enzyme activity without sample, and O.D. is optical density.
The IC50 of the compounds was calculated using EZ-Fit Enzyme Kinetic Program (Perrella Scientific Inc., Amhrest, U.S.A.).

[2] = system: mouse fibroblast cell line (3T3); assay: MTT anti-proliferative assay, 3T3 cells; assay type: cell-based; details: for inhibition of the proliferation of 3T3 cells (in words): in comparison to cyclohexamide
Experimental: (§1) Compounds found to be active in inhibiting thymidine phosphorylase were then subjected to MTT proliferation assay. Rapid proliferation is the property inherent to cancerous/tumor cells. This assay was carried out to study the effect of these compounds on proliferation of various cell lines. The cell lines which we targeted were mouse fibroblast cell line (3T3), and prostate cancer line (PC3).
(§2) Anti-proliferative activity of active compounds was evaluated by using the standard MTT (3-[4,5-dimethylthiazole-2-yl]-2,5-diphenyl-tetrazolium bromide) colorimetric assay in 96-well plate (Dimas et al., 1998).
(§3) It is a colorimetric assay that measures the reduction of MTT, by mitochondrial enzyme i.e. succinate dehydrogenase. The MTT enters into the mitochondria of cell, where it is reduced to an insoluble formazan salt (FIG. 8). The extent of MTT reduction was measured at 540 nm. As reduction of MTT can only occur in metabolically active cells, the level of activity is actually a measure of the viability of the cells (Vega-Avila and Pugsley, 2011).
(§4) Mouse fibroblast cell line 3T3 was cultured in DMEM, supplemented with 5% of FBS, 100 IU/mL of penicillin and 100 μg/mL of streptomycin, and kept at 37° C. in 5% CO2 incubator. For the preparation of cell culture, 100 μL/well of cell solution (5×10^4 cells/mL) was added into 96-well plate. The plate was incubated for overnight, and fresh medium was added after the removal of old medium. The test compounds were also added in different concentrations into the plate and plate was again incubated for 48 h. After the completion of this incubation period, 200 μL MTT (0.5 mg/mL) was added and plate was again incubated for 4 h, after this final incubation 100 μL of DMSO was added to each well. The level of MTT reduction to formazan was evaluated by change in absorbance at 540 nm using a micro plate reader (Spectra Max plus, Molecular Devices, CA, USA).

[3] = system: prostate cancer line (PC3); assay: MTT anti-proliferative assay, PC3 cells; assay type: cell-based; details: for IC50: read-out: IC50 ± SD (μM), PC3 Cell Line; for inhibition of the proliferation of PC3 cancer cells (in words): in comparison of doxorubucin
Experimental: as §1, §2, §3, §4

SMILES: O=C(N/N=C/c1cc(Cl)ccc1O)c1ccc(O)cc1 [Compound 23, 4-Hydroxy-N′-[(E)-(5-chloro-2-hydroxyphenyl)methylidene]benzohydrazide]
- IC50 (μM ± S.E.M.), thymidine phosphorylase inhibition [1]: Inactive

SMILES: Cc1ccccc1/C=N/NC(=O)c1ccc(O)cc1 [Compound 16, 4-Hydroxy-N′-[(E)-(2-methylphenyl)methylidene]benzohydrazide]
- IC50 [1]: 177.2 ± 0.5 µM
- IC50 ± SD (μM), 3T3 Cell Line ([2]; 48 h, 3T3 cells): Inactive
- IC50 ± SD (μM), PC3 Cell Line ([3]; PC3 cells): Inactive

SMILES: O=C(N/N=C/c1cccc(Cl)c1)c1ccc(O)cc1 [Compound 13, 4-Hydroxy-N′-[(E)-(3-chlorophenyl)methylidene]benzohydrazide]
- IC50 [1]: 160.3 ± 1 µM
- IC50 ± SD (μM), 3T3 Cell Line ([2]; 48 h, 3T3 cells): Inactive
- IC50 ± SD (μM), PC3 Cell Line ([3]; PC3 cells): Inactive

SMILES: COc1ccc(O)c(/C=N/NC(=O)c2ccc(O)cc2)c1 [Compound 20, 4-Hydroxy-N′-[(E)-(2-hydroxy-5-methoxyphenyl)methylidene]benzohydrazide]
- IC50 [1]: 172 ± 2.7 µM
- inhibition of the proliferation of 3T3 cells (in words) [2]: significantly inhibit
- IC50 ([3]; Homo sapiens, PC-3, PC3 cells): 10.5 ± 0.551 µM
- inhibition of the proliferation of PC3 cancer cells (in words) [3]: significantly inhibit

SMILES: O=C(N/N=C/c1ccccc1O)c1ccc(O)cc1 [Compound 1, 4-Hydroxy-N′-[(E)-(2-hydroxyphenyl)methylidene]benzohydrazide]
- IC50 [1]: 189.1 ± 0.1 µM
- inhibition of the proliferation of 3T3 cells (in words) [2]: significantly inhibit
- IC50 ([3]; Homo sapiens, PC-3, PC3 cells): 7.58 ± 0.462 µM
- inhibition of the proliferation of PC3 cancer cells (in words) [3]: significantly inhibit

SMILES: C/C(=N\NC(=O)c1ccc(O)cc1)c1ccccc1O [Compound 25, 4-Hydroxy-N′-[(E)-1-(2-Hydroxyphenyl)ethylidene]benzohydrazide]
- IC50 (μM ± S.E.M.), thymidine phosphorylase inhibition [1]: Inactive

SMILES: O=C(N/N=C/c1cccc(O)c1O)c1ccc(O)cc1 [Compound 4, 4-Hydroxy-N′-[(E)-(2,3-dihydroxyphenyl)methylidene]benzohydrazide]
- IC50 [1]: 170.6 ± 0.5 µM
- inhibition of the proliferation of 3T3 cells (in words) [2]: significantly inhibit
- IC50 ([3]; Homo sapiens, PC-3, PC3 cells): 7.61 ± 0.49 µM
- inhibition of the proliferation of PC3 cancer cells (in words) [3]: significantly inhibit

SMILES: C[C@@H]1C[C@@H]([C@H](O)CC2CC(=O)NC(=O)C2)C(=O)[C@@H](C)C1 [Cyclohexamide, reference compound]
- IC50 ([2]; 48 h, 3T3 cells, read-out: IC50 ± SD (μM), 3T3 Cell Line): 0.26 ± 0.1 µM

SMILES: O=C(N/N=C/c1ccc(O)c(O)c1O)c1ccc(O)cc1 [Compound 8, 4-Hydroxy-N′-[(E)-(2,3,4-trihydroxyphenyl)methylidene]benzohydrazide]
- IC50 (μM ± S.E.M.), thymidine phosphorylase inhibition [1]: Inactive

SMILES: O=C(N/N=C/c1ccc(Cl)cc1Cl)c1ccc(O)cc1 [Compound 15, 4-Hydroxy-N′-[(E)-(2,4-dichlorophenyl)methylidene]benzohydrazide]
- IC50 (μM ± S.E.M.), thymidine phosphorylase inhibition [1]: Inactive

SMILES: CN(C)c1ccc(/C=N/NC(=O)c2ccc(O)cc2)cc1 [Compound 17, 4-Hydroxy-N′-[(E)-[4-dimethylaminophenyl]methylidene]benzohydrazide]
- IC50 (μM ± S.E.M.), thymidine phosphorylase inhibition [1]: unable to inhibit the enzyme; also recorded: Inactive

SMILES: O=C(N/N=C/c1cc(Br)ccc1O)c1ccc(O)cc1 [Compound 22, 4-Hydroxy-N′-[(E)-(5-bromo-2-hydroxyphenyl)methylidene]benzohydrazide]
- IC50 (μM ± S.E.M.), thymidine phosphorylase inhibition [1]: Inactive

SMILES: C/C(=N\NC(=O)c1ccc(O)cc1)c1ccc(O)cc1O [Compound 26, 4-Hydroxy-N′-[(E)-1-(2,4-dihydroxyphenyl)ethylidene]benzohydrazide]
- IC50 (μM ± S.E.M.), thymidine phosphorylase inhibition [1]: Inactive

SMILES: O=C(N/N=C/c1c(O)cc(O)cc1O)c1ccc(O)cc1 [Compound 7, 4-Hydroxy-N′-[(E)-(2,4,6-trihydroxyphenyl)methylidene]benzohydrazide]
- IC50 (μM ± S.E.M.), thymidine phosphorylase inhibition [1]: Inactive

SMILES: COc1cccc2c1C(=O)c1c(O)c3c(c(O)c1C2=O)C[C@@](O)(C(=O)CO)C[C@@H]3O[C@H]1C[C@H](N)[C@H](O)[C@H](C)O1 [Doxorubucin, reference compound]
- IC50 ([3]; PC3 cells): 0.91 ± 0.1 µM

SMILES: CSc1ccc(/C=N/NC(=O)c2ccc(O)cc2)cc1 [Compound 18]
- IC50 (μM ± S.E.M.), thymidine phosphorylase inhibition [1]: unable to inhibit the enzyme; also recorded: Inactive
